Consider 1 molecule from patent US20230112845A1, “COMPOSITIONS OF BERBERINE URSODE[…] METHODS THEREOF FOR TREATING FATTY LIVER DISEASE, DIABETES AND HYPERLIPIDEMIA” (SHENZHEN HIGHTIDE BIOPHARMACEUTICAL LTD., priority 2020, published 2023).

This data set relates to subjects with a history of hypercholesterolemia. Briefly: Phase 1b study: safety and tolerability. The conditions noted are these: 28 days. Format: in vivo, human. As for the experimental part: A double-blind, randomized, placebo-controlled, dose ranging study was carried out that compared three doses of berberine ursodeoxycholate (BUDCA, a.k.a. HTD1801) to placebo in a cohort of subjects with a history of hypercholesterolemia and serum LDL-c levels above 2.59 mmol/L (>99.9 mg/dL). BUDCA was administered in two divided doses each day for 28 days. The primary endpoints of the study were safety and tolerability of this new compound, as well as its effect in lowering serum lipid and lipoprotein concentrations.
Subjects underwent an initial assessment and were then randomized to receive ascending doses of BUDCA in three sequential dosing groups: Group I received 500 mg/day of BUDCA or matching placebo in a ratio of 3:1. Group II received 1,000 mg/day of BUDCA or placebo, 3:1 and Group III received 2,000 mg/day BUDCA or placebo, 3:1. Study medication or placebo was given in two equal doses daily for 28 days. […]
The groups were enrolled sequentially, but follow-up overlapped (the next cohort could begin during the follow-up period of the prior cohort) (FIG. 1). The decision to move to the next dose level was based upon tolerability and safety findings, as assessed by a Safety Monitoring Committee. […] After having vital signs measured and baseline laboratory tests taken, the subject was given a morning meal and then observed while taking their first dose of BUDCA with a glass of water. […]

For the molecule `COc1ccc2cc3[n+](cc2c1OC)CCc1cc2c(cc1-3)OCO2.C[C@H](CCC(=O)[O-])[C@H]1CC[C@H]2[C@@H]3[C@@H](O)C[C@@H]4C[C@H](O)CC[C@]4(C)[C@H]3CC[C@]12C` [BUDCA, berberine ursodeoxycholate], the “frequency of treatment-related adverse events” value (active drug, all doses, placebo 66%) was found to be 67%. Also, the tolerability result (up to 2,000 mg per day) was “generally well tolerated”.
